Data published in patent US20250064886A1, “CARDIOVASCULAR AND CEREBROVASCULAR DRUG AND USE THEREOF” (HANGZHOU ADAMERCK PHARMLABS INC., priority 2021, published 2025).
Where “and” joins values, the source holds several entries; their conditions need not be identical. Equal values may be shown once.

What was measured:
[1] = test system: Erastin-induced neuronal cells; experiment: Cell viability (CCK8) of Erastin-induced neuronal cells (Example 8); type: cell-based, rat; conditions: Erastin 50 μM
Method: (§1) Experimental method: Primary neuron cells were incubated in a medium containing Erastin (final concentration of 50 μM) for 24 hours, and then incubated in a medium containing different concentrations of the test drug and Erastin (final concentration of 50 μM) for another 24 hours. After incubation, Real time PCR was used to detect mRNA expression of GPX4 in each group of cells, CCK8 assay was used to detect cell viability in each group of cells, C11-BODIPY probe method was used to detect intracellular lipid ROS levels in each group of cells, and PGSK probe method was used to detect iron content in cells.
(§2) The experimental data were expressed in means±SD, and statistical differences between groups were determined using one-way ANOVA and Tukey's test, with p-values less than 0.05 considered significant.
After incubation, the CCK8 experiment was used to detect the cell viability of each group of cells. The results were presented as Mean±SD. Compared with control group, ***p<0.0001. Compared with model control group, ^#P<0.05, ^##P<0.01.

[2] = test system: lipid ROS levels in Erastin-induced nerve cells; experiment: Lipid ROS levels (C11-BODIPY probe) in Erastin-induced nerve cells (Example 8); type: cell-based, rat; conditions: Erastin 50 μM
Method: as §1, §2
After incubation, the C11-BODIPY probe method was used to detect the lipid ROS levels in each group of cells. The results were presented as Mean±SD. Compared with the control group, ***p<0.0001; compared with the model group, #p<0.05, ##p<0.01.

tryptase = experiment: Sensitization risk: tryptase expression (OD, BAPNA) in zebrafish (Example 2); type: in vivo
Method: Experimental method: 2 dpf wild type AB strain zebrafish were randomly selected and placed in a 24-well plate, with each group 6 parallel wells and 10 zebrafish per well. The zebrafish were injected intravenously with samples at a dose of 500 ng/tail and the positive control “C48/80” at a concentration of 1.5 μg/mL, while normal control group was set up. Each well has a capacity of 1 mL.
All experimental groups were given BAPNA by dissolving it in the water. After treatment at 28° C. for 1 day, the liquid was transferred to 96-well plates with 200 μL/well, and the relative absorbance values (OD values) of the expression levels of tryptase in each experimental group were detected using an microplate reader, and the results of the statistical analysis of the OD values were used to evaluate the risk of sensitization by sample. Statistical results were expressed as mean±SE.
Statistical analysis was performed using SPSS software, and p<0.05 indicates significant differences.

CC(=O)N[C@H](CSCC1OC2OC3C(CSC[C@@H](NC(C)=O)C(=O)[O-])OC(OC4C(CSC[C@@H](NC(C)=O)C(=O)[O-])OC(OC5C(CSC[C@@H](NC(C)=O)C(=O)[O-])OC(OC6C(CSC[C@@H](NC(C)=O)C(=O)[O-])OC(OC7C(CSC[C@@H](NC(C)=O)C(=O)[O-])OC(OC8C(CSC[C@@H](NC(C)=O)C(=O)[O-])OC(OC9C(CSC[C@@H](NC(C)=O)C(=O)[O-])OC(OC1C(O)C2O)C(O)C9O)C(O)C8O)C(O)C7O)C(O)C6O)C(O)C5O)C(O)C4O)C(O)C3O)C(=O)[O-].[Na+].[Na+].[Na+].[Na+].[Na+].[Na+].[Na+].[Na+] (some centres unmarked) [Compound (1)]
Cell viability (%) ([1]; 1 μM, 24 h, control = 100, Mean±SD): 57.01 ± 2.82^ %
Cell viability (%) ([1]; 2.5 μM): 61.77 ± 6.56^ %
Cell viability (%) ([1]; 5 μM): 65.4 ± 5.81%
Cell viability (%) ([1]; 10 μM): 76.62 ± 5.99^## %
Cell viability (%) ([1]; 20 μM): 80.62 ± 5.39^## %
Cell viability (%) ([1]; 40 μM): 83.43 ± 6.21^## %
Lipid ROS levels (%) ([2]; 1 μM, control = 100, Mean±SD): 150.18 ± 6.05^ %
Lipid ROS levels (%) ([2]; 2.5 μM): 142.58 ± 3.01^ %
Lipid ROS levels (%) ([2]; 5 μM): 137.9 ± 6.72%
Lipid ROS levels (%) ([2]; 10 μM): 132.33 ± 6.57^## %
Lipid ROS levels (%) ([2]; 20 μM): 121.82 ± 5.9^## %
Lipid ROS levels (%) ([2]; 40 μM): 114.13 ± 8.82^## %
Sensitization risk, in words (tryptase; 500 ng/tail): no or substantially no sensitization risk
Relative sensitization risk (compared with positive control group) (tryptase; 500 ng/tail intravenous): 13%
Sensitization risk (%) (tryptase; 500 ng/tail intravenous): 11.1%
Absorbance value (OD value), parallel wells 1-6 (tryptase; 500 ng/tail intravenous, 28° C. 1 day, single wells): 0.05725 and 0.05895 and 0.06195 and 0.06575 and 0.05845 and 0.05605
Absorbance value (OD value), mean (tryptase; 500 ng/tail intravenous, mean of 6 wells): 0.060
